Data on 19 compounds can be found in patent US20260200919A1, “SUBSTITUTED AMINOPYRIDINE COMPOUNDS AND METHODS OF TREATING DISEASE USING SAME” (Atavistik Bio, Inc., priority 2023, published 2026).

Assay [1] concerns the target T1, human recombinant kinase full-length AKT1 E17K (Homo sapiens, UniProt P31749, E17K).
T1 construct: Purified human recombinant kinase full-length AKT1 E17K was expressed in insect cells; made in house; host or cells: insect cells
As to the kind of experiment: AKT1 E17K kinase assay (TR-FRET, Lance). Format: biochemical. Particulars: 0.6 nM AKT1 E17K, 50 nM Ulight-CREBtide, either 50 μM ATP or 2 mM ATP (not specified which), 60 min at RT. How it is done: AKT1 E17K kinase assay: Inhibitory effects of compounds on AKT1 E17K were undertaken in a 10-pt dose response kinase activity assay measuring phospho-peptide product formation based on TR-FRET signal as described in the following paragraph.
(§1) Purified human recombinant kinase full-length AKT1 E17K was expressed in insect cells and activated in vitro by PDPK1. Ulight™-CREBtide (PerkinElmer, catalog number TRF0107) was used as the peptide substrate. The reaction buffer consisted of 50 mM HEPES pH 7.5, 10 mM MgCl2, 0.01% Triton X-100, 0.01% BSA, 2 mM DTT, 0.6 nM AKT1 E17K, 50 nM. Ulight™ CREBtide and either 50 μM ATP or 2 mM ATP. The compound solution was prepared as 10 mM DMSO stock. […] Final DMSO concentration in the assay was 1%. […] The reaction was stopped after 60 min of incubation at RT by the addition of 10 μL of Detection Mix (PerkinElmer, #CR97-100) consisting of Europium-anti-phospho-CREB (Ser133) (Perkin Elmer, catalog numberTRF0200). Incubation with the detection mix for a further 60 min allowed binding of antibody to the phospho-Ulight™ CREBtide. The fluorescence emissions at 620 nm and 665 nm after excitation at […] was measured using Envision reader. The ratio of the emissions at 665 nm and at 620 nm provided the measure for the amount of phosphorylated CREBtide product of AKT1 E17K kinase activity.
(In TR-FRET formats the signal depends on donor and acceptor labels being close together.)

Assay [2] has as its target T2, human recombinant kinase full-length wildtype AKT1 (Homo sapiens, UniProt P31749).
T2 construct: Purified human recombinant kinase full-length wildtype AKT1 was expressed in insect cells; made in house; host or cells: insect cells
As to the kind of experiment: AKT1 kinase assay (wildtype, TR-FRET, Lance). Format: biochemical. Particulars: 0.6 nM wildtype AKT1, 50 nM Ulight-CREBtide, either 50 μM ATP or 2 mM ATP (not specified which), 60 min at RT. The protocol: AKT1 kinase assay: Inhibitory effects of compounds on wildtype AKT1 were undertaken in a 10-pt dose response kinase activity assay measuring phospho-peptide product formation based on TR-FRET signal as described in the following paragraph.
as §1, with “full-length wildtype” for “full-length”, “AKT1” for “AKT1 E17K”, “Ulight™—CREBtide” for “Ulight™-CREBtide”, “AKT1,” for “AKT1 E17K,”, “nM Ulight™-CREBtide” for “nM. Ulight™ CREBtide”

T2 sequence (P31749 whole entry): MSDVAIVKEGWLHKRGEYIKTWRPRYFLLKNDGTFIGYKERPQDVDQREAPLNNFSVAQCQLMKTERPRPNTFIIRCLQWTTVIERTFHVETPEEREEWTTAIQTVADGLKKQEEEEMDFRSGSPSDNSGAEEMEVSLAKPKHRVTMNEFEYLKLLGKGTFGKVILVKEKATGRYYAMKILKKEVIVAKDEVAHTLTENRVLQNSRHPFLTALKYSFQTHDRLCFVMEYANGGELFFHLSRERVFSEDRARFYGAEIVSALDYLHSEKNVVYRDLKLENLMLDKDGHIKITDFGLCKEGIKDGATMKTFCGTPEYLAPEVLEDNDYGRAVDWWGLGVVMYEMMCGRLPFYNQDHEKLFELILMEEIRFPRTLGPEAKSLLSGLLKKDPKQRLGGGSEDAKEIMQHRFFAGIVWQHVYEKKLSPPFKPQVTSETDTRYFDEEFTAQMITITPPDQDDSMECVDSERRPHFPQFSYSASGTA
T1 sequence (P31749 whole entry E17K): as the sequence (P31749 whole entry) above, with E17K counted along it

In the case of `Nc1ncccc1-c1nc2ccc(-c3ccccc3)nc2n1-c1ccc(C2CN(C(=O)c3cccc(C(=O)O)c3)C2)cc1` [Compound 72, 3-(3-(4-(2-(2-aminopyridin-3-yl)-5-phenyl-3H-imidazo[4,5-b]pyridin-3-yl)phenyl)azetidine-1-carbonyl)benzoic acid], the IC50 in assay [1] is 50 to 200 nM; in assay [2], less than 500 nM.

`COC(=O)c1ccccc1C(=O)N1CC(c2ccc(-n3c(-c4cccnc4N)nc4ccc(-c5ccccc5)nc43)cc2)C1` [Compound 73, methyl 2-(3-(4-(2-(2-aminopyridin-3-yl)-5-phenyl-3H-imidazo[4,5-b]pyridin-3-yl)phenyl)azetidine-1-carbonyl)benzoate]: the IC50 is more than 500 nM in assay [1] and less than 500 nM in assay [2].

Take `Nc1ncccc1-c1nc2ccc(-c3ccccc3)nc2n1-c1ccc(C2CN(C(=O)c3ccccc3C(=O)O)C2)cc1` [Compound 74, 2-(3-(4-(2-(2-aminopyridin-3-yl)-5-phenyl-3H-imidazo[4,5-b]pyridin-3-yl)phenyl)azetidine-1-carbonyl)benzoic acid]: the IC50 in assay [1] and in assay [2] was more than 500 nM throughout.

`Cc1cc(C(=O)O)ccc1C(=O)N1CC(c2ccc(-n3c(-c4cccnc4N)nc4ccc(-c5ccccc5)nc43)cc2)C1` [Compound 75, 4-(3-(4-(2-(2-aminopyridin-3-yl)-5-phenyl-3H-imidazo[4,5-b]pyridin-3-yl)phenyl)azetidine-1-carbonyl)-3-methylbenzoic acid]: the IC50 in assay [1] was less than 50 nM; in assay [2], less than 500 nM.

On to `Nc1ncccc1-c1nc2ccc(-c3ccccc3)nc2n1-c1ccc(C2CN(C(=O)c3ccc(C(=O)O)cc3F)C2)cc1` [Compound 76, 4-(3-(4-(2-(2-aminopyridin-3-yl)-5-phenyl-3H-imidazo[4,5-b]pyridin-3-yl)phenyl)azetidine-1-carbonyl)-3-fluorobenzoic acid], for which the figures for the concentration for half-maximal inhibition (IC50) in assay [1] and in assay [2] were less than 50 nM and less than 500 nM, respectively.

With `Cc1c(C(=O)O)cccc1C(=O)N1CC(c2ccc(-n3c(-c4cccnc4N)nc4ccc(-c5ccccc5)nc43)cc2)C1` [Compound 77, 3-(3-(4-(2-(2-aminopyridin-3-yl)-5-phenyl-3H-imidazo[4,5-b]pyridin-3-yl)phenyl)azetidine-1-carbonyl)-2-methylbenzoic acid], the IC50 in assay [1] was 50 to 200 nM; in assay [2], less than 500 nM.

Regarding `Nc1ncccc1-c1nc2ccc(-c3ccccc3)nc2n1-c1ccc(C2CN(C(=O)c3cccc(C(=O)O)c3F)C2)cc1` [Compound 78, 3-(3-(4-(2-(2-aminopyridin-3-yl)-5-phenyl-3H-imidazo[4,5-b]pyridin-3-yl)phenyl)azetidine-1-carbonyl)-2-fluorobenzoic acid], the 50% inhibitory concentration (IC50) is 50 to 200 nM in assay [1] and less than 500 nM in assay [2].

`Nc1ncccc1-c1nc2ccc(-c3ccccc3)nc2n1-c1ccc(C2CN(Cc3cccc(CC(=O)O)c3)C2)cc1` [Compound 79, 2-(3-((3-(4-(2-(2-aminopyridin-3-yl)-5-phenyl-3H-imidazo[4,5-b]pyridin-3-yl)phenyl)azetidin-1-yl)methyl)phenyl) acetic acid]: the IC50 was 200 to 500 nM in assay [1] and less than 500 nM in assay [2].

For the compound `CC(=O)Nc1ccc(-c2ccc3nc(-c4cccnc4N)n(-c4ccc(CNC(=O)c5cccc(CC(=O)O)c5)cc4)c3n2)cc1` [Compound 80, 2-(3-((4-(5-(4-acetamidophenyl)-2-(2-aminopyridin-3-yl)-3H-imidazo[4,5-b]pyridin-3-yl)benzyl)carbamoyl)phenyl) acetic acid], the IC50 is 200 to 500 nM in assay [1] and less than 500 nM in assay [2].

Consider `CC(=O)Nc1cccc(-c2ccc3nc(-c4cccnc4N)n(-c4ccc(CNC(=O)c5cccc(CC(=O)O)c5)cc4)c3n2)c1` [Compound 81, 2-(3-((4-(5-(3-acetamidophenyl)-2-(2-aminopyridin-3-yl)-3H-imidazo[4,5-b]pyridin-3-yl)benzyl)carbamoyl)phenyl) acetic acid], for which the IC50 in assay [1] was 50 to 200 nM; in assay [2], less than 500 nM.

In the case of `Nc1ncccc1-c1nc2cc(-c3ccccc3)cnc2n1-c1ccc(CNC(=O)c2cccc(CC(=O)O)c2)cc1` [Compound 82, 2-(3-((4-(2-(2-aminopyridin-3-yl)-6-phenyl-3H-imidazo[4,5-b]pyridin-3-yl)benzyl)carbamoyl)phenyl) acetic acid], the half-maximal inhibitory concentration (IC50) in assay [1] is 200 to 500 nM; in assay [2], less than 500 nM.

As to `CC(=O)Nc1cccc(-c2cnc3c(c2)nc(-c2cccnc2N)n3-c2ccc(CNC(=O)c3cccc(CC(=O)O)c3)cc2)c1` [Compound 83, 2-(3-((4-(6-(3-acetamidophenyl)-2-(2-aminopyridin-3-yl)-3H-imidazo[4,5-b]pyridin-3-yl)benzyl)carbamoyl)phenyl) acetic acid], the concentration for half-maximal inhibition (IC50) was 200 to 500 nM in assay [1] and less than 500 nM in assay [2].

Regarding `CC(=O)Nc1ccc(-c2cnc3c(c2)nc(-c2cccnc2N)n3-c2ccc(CNC(=O)c3cccc(CC(=O)O)c3)cc2)cc1` [Compound 84, 2-(3-((4-(6-(4-acetamidophenyl)-2-(2-aminopyridin-3-yl)-3H-imidazo[4,5-b]pyridin-3-yl)benzyl)carbamoyl)phenyl) acetic acid], the IC50 in assay [1] was 50 to 200 nM; in assay [2], less than 500 nM.

With `Nc1ncccc1-c1nc2cc(-c3cccc(NC(=O)c4ccccc4)c3)cnc2n1-c1ccc(CNC(=O)c2cccc(CC(=O)O)c2)cc1` [Compound 85, 2-(3-((4-(2-(2-aminopyridin-3-yl)-6-(3-benzamidophenyl)-3H-imidazo[4,5-b]pyridin-3-yl)benzyl)carbamoyl)phenyl) acetic acid], the IC50 in assay [1] was 50 to 200 nM; in assay [2] it was less than 500 nM.

Turning to `Nc1ncccc1-c1nc2cc(-c3ccc(NC(=O)c4ccccc4)cc3)cnc2n1-c1ccc(CNC(=O)c2cccc(CC(=O)O)c2)cc1` [Compound 86, 2-(3-((4-(2-(2-aminopyridin-3-yl)-6-(4-benzamidophenyl)-3H-imidazo[4,5-b]pyridin-3-yl)benzyl)carbamoyl)phenyl) acetic acid], the figures for the concentration for half-maximal inhibition (IC50) in assay [1] and in assay [2] were less than 50 nM and less than 500 nM, respectively.

On to `COC(=O)Cc1ccc(C(=O)NCc2ccc(-n3c(-c4cccnc4N)nc4cc(-c5cccnc5)cnc43)cc2)cc1` [Compound 87, methyl 2-(4-((4-(2-(2-aminopyridin-3-yl)-6-(pyridin-3-yl)-3H-imidazo[4,5-b]pyridin-3-yl)benzyl)carbamoyl)phenyl)acetate], for which the values for the IC50 in assay [1] and in assay [2] were more than 500 nM and less than 500 nM, respectively.

Take `Nc1ncccc1-c1nc2cc(-c3cccnc3)cnc2n1-c1ccc(CNC(=O)c2ccc(CC(=O)O)cc2)cc1` [Compound 88, 2-(4-((4-(2-(2-aminopyridin-3-yl)-6-(pyridin-3-yl)-3H-imidazo[4,5-b]pyridin-3-yl)benzyl)carbamoyl)phenyl) acetic acid]: the IC50 in assay [1] is more than 500 nM; in assay [2], less than 500 nM.

In the case of `COC(=O)Cc1cccc(C(=O)NCc2ccc(-n3c(-c4cccnc4N)nc4cc(-c5cccnc5)cnc43)cc2)c1` [Compound 89, methyl 2-(3-((4-(2-(2-aminopyridin-3-yl)-6-(pyridin-3-yl)-3H-imidazo[4,5-b]pyridin-3-yl)benzyl)carbamoyl)phenyl)acetate], the concentration for half-maximal inhibition (IC50) in assay [1] is more than 500 nM; in assay [2], less than 500 nM.

On to `Nc1ncccc1-c1nc2cc(-c3cccnc3)cnc2n1-c1ccc(CNC(=O)c2cccc(CC(=O)O)c2)cc1` [Compound 90, 2-(3-((4-(2-(2-aminopyridin-3-yl)-6-(pyridin-3-yl)-3H-imidazo[4,5-b]pyridin-3-yl)benzyl)carbamoyl)phenyl) acetic acid], for which the values for the 50% inhibitory concentration (IC50) in assay [1] and in assay [2] were more than 500 nM and less than 500 nM, respectively.

For orientation: IC50 means the concentration that gives 50% inhibition.
